Laboratory results reported in patent US20220162191A1, “SMALL MOLECULE MODULATORS OF IL-17” (LEO PHARMA A/S, priority 2019, published 2022).

Biological target: T1, human IL-17AA (Homo sapiens, UniProt Q16552)
T1 construct: host or cells: HEK (human embryonic kidney) cells
T1 sequence (Q16552 24-155) 1: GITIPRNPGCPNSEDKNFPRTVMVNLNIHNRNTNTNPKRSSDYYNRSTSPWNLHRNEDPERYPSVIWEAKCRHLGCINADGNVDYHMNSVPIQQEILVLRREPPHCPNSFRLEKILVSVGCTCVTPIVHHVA
T1 sequence (Q16552 24-155) 2: T1 sequence (Q16552 24-155) 1
Assay: IL-8 release assay in human epithelial keratinocytes adult (HEKa)
Format: cell-based
Conditions: 3 ng/ml human IL-17AA + 10 ng/ml human TNFalpha, 68-72 h, IL-8 by HTRF, read-out: Rel EC50 L-8 release assay
Method: Example: IL-8 release assay in human epithelial keratinocytes adult (HEKa) Keratinocytes were seeded at 3500 cells/well in 384-well ViewPlates (Perkin Elmer) in Epilife medium (Thermo Fisher) containing human keratinocyte growth supplement (HKGS) without hydrocortisone and incubated in a humid incubator at 37° C., 5% CO2, overnight. The following day growth medium was removed and 25 μl fresh Epilife 10 medium added. 75 nl test compound in 100% DMSO was added into each well reserved
for test compounds, by the use of acoustic pipetting. The remaining wells received an equal volume of DMSO only, as vehicle control, or terfenadine in DMSO, as a positive control for any cytotoxic compounds. Subsequently, another 25 μl Epilife medium was added to each well. Finally, wells containing test compounds and wells prepared to yield 15 maximum stimulation received 25 μl of 9 ng/ml recombinant, human embryonic kidney cell (HEK)-derived human IL-17AA+30 ng/ml human TNF-alpha, in Epilife medium. Wells prepared to define 100% inhibition of IL-17 effects received 25 μl of 30 ng/ml human TNF-alpha alone, in Epilife medium. Final concentrations were 3 ng/ml HEKhuman IL-17AA+10 ng/ml human TNFalpha (maximum stimulation) and 10 ng/ml 20 human TNFalpha alone (100% inhibition, Emax), respectively. Cells were incubated for 68-72 h in the incubator. IL-8 released from the cells was measured by the use of a commercial homogenous time-resolved fluorescence (HTRF) assay (CisBio). 2 μl cell culture supernatant was transferred to a 384-well Proxiplate. 5 μl HTRF reagent was added and the plates incubated sealed in the dark for 3-22 h at room temperature. Time resolved fluorescence was read at 665 vs 620 nm, with excitation at 320 nm, and IL-8 levels calculated as percent of controls. Reduction of the amount of secreted IL-8 indicates decreased IL-17 signaling. Concentration response curves were fitted by the use of a four-parameter logistic equation. Relative IC50 and Emax were reported from 5 curves showing acceptable fit (r2>0.9). Cytotoxicity was measured in the cell-containing
Compounds of the present invention were tested in the IL-8 release assay in human epithelial keratinocytes.

| EC50 [µM] | Structure (SMILES) |
| --- | --- |
| 0.1 to 1 | Cc1ncn(C)c1-c1ccc(NC(=O)[C@H](Cc2cc(-c3cccc(C(C)(C)N)c3)ccc2Cl)NC(=O)c2ccnn2C)cc1 [Example 203, N-[(1S)-1-[[5-[3-(1-amino-1-methyl-ethyl)phenyl]-2-chloro-phenyl]methyl]-2-[4-(3,5-dimethylimidazol-4-yl)anilino]-2-oxo-ethyl]-2-methyl-pyrazole-3-carboxamide] |
| < 0.1 | Cc1n[nH]c(C)c1-c1ccc(NC(=O)[C@H](Cc2cc(-c3ccc(=O)n(C(C)C)c3)ccc2Cl)NC(=O)C2(F)CC2)cc1 [Example 137, N-[(1S)-1-[[2-chloro-5-(1-isopropyl-6-oxo-3-pyridyl)phenyl]methyl]-2-[4-(3,5-dimethyl-1H-pyrazol-4-yl)anilino]-2-oxo-ethyl]-1-fluoro-cyclopropanecarboxamide] |
| 0.1 to 1 | Cc1cnn(C)c1-c1ccc(NC(=O)[C@@H](NC(=O)C2(F)CC2)[C@@H]2CCc3ccc(-c4ccnc(N5CC[C@H](O)C5)c4)cc32)cc1 [Example 359, N-[(1S)-2-[4-(2,4-dimethylpyrazol-3-yl)anilino]-1-[(1R)-6-[2-[(3S)-3-hydroxypyrrolidin-1-yl]-4-pyridyl]indan-1-yl]-2-oxo-ethyl]-1-fluoro-cyclopropanecarboxamide] |
| 0.1 to 1 | Cc1cnn(C)c1-c1ccc(NC(=O)[C@@H](NC(=O)C2(F)CC2)[C@@H]2CCCc3ccc(-c4ccnc(N5C[C@@H]6C[C@H]5CN6)c4)cc32)cc1 [Example 392, N-[(1S)-1-[(1R)-7-[2-[(1S,4S)-2,5-diazabicyclo[2.2.1]heptan-2-yl]-4-pyridyl]tetralin-1-yl]-2-[4-(2,4-dimethylpyrazol-3-yl)anilino]-2-oxo-ethyl]-1-fluoro-cyclopropanecarboxamide] |
| < 0.1 | Cn1cncc1-c1ccc(NC(=O)[C@H](Cc2cc(-c3ccnc(C(C)(O)C4CC4)c3)ccc2Cl)NC(=O)C2(F)CC2)cc1 (stereo partly drawn) [Example 142, N-[(1S)-1-[[2-chloro-5-[2-(1-cyclopropyl-1-hydroxy-ethyl)-4-pyridyl]phenyl]methyl]-2-[4-(3-methylimidazol-4-yl)anilino]-2-oxo-ethyl]-1-fluoro-cyclopropanecarboxamide] |
| < 0.1 | Cc1n[nH]c(C)c1-c1ccc(NC(=O)[C@@H](NC(=O)C2(F)CC2)[C@@H]2CCCc3ccc(-c4cnn(C5CCOCC5)c4)cc32)cc1 [Example 396, N-[(1S)-2-[4-(3,5-dimethyl-1H-pyrazol-4-yl)anilino]-2-oxo-1-[(1R)-7-(1-tetrahydropyran-4-ylpyrazol-4-yl)tetralin-1-yl]ethyl]-1-fluoro-cyclopropanecarboxamide] |
| 0.1 to 1 | Cc1n[nH]c(C)c1-c1ccc(NC(=O)[C@@H](NC(=O)C2(F)CC2)[C@@H]2CCc3ccc(-c4cc(C(C)C)ncn4)cc32)cc1 [Example 353, N-[(1S)-2-[4-(3,5-dimethyl-1H-pyrazol-4-yl)anilino]-1-[(1R)-6-(6-isopropylpyrimidin-4-yl)indan-1-yl]-2-oxo-ethyl]-1-fluoro-cyclopropanecarboxamide] |
| 0.1 to 1 | Cc1n[nH]c(C)c1-c1ccc(NC(=O)[C@H](Cc2cc(-c3ccc(CN4C[C@H]5C[C@@H]4CO5)cc3)ccc2Cl)NC(=O)C2(F)CC2)cc1 [Example 228, N-[(1S)-1-[[2-chloro-5-[4-[[(1R,4R)-2-oxa-5-azabicyclo[2.2.1]heptan-5-yl]methyl]phenyl]phenyl]methyl]-2-[4-(3,5-dimethyl-1H-pyrazol-4-yl)anilino]-2-oxo-ethyl]-1-fluoro-cyclopropanecarboxamide] |
| 0.1 to 1 | Cc1n[nH]c(C)c1-c1ccc(NC(=O)[C@H](Cc2cc(-c3cnn(C)c3C)ccc2Cl)NC(=O)C2(F)CC2)cc1 [Example 227, N-[(1S)-1-[[2-chloro-5-(1,5-dimethylpyrazol-4-yl)phenyl]methyl]-2-[4-(3,5-dimethyl-1H-pyrazol-4-yl)anilino]-2-oxo-ethyl]-1-fluoro-cyclopropanecarboxamide] |
| 0.1 to 1 | CC(C)n1cc(-c2cccc(C(c3ccccc3)C(NC(=O)OC3CC3)C(=O)Nc3ccc(-c4cncn4C)cc3)c2)ccc1=O (single isomer, unassigned) [Example 231, Cyclopropyl N-[1-[[3-(1-isopropyl-6-oxo-3-pyridyl)phenyl]-phenyl-methyl]-2-[4-(3-methylimidazol-4-yl)anilino]-2-oxo-ethyl]carbamate] |
| < 0.1 | Cc1n[nH]c(C)c1-c1ccc(NC(=O)[C@H](Cc2cc(-c3ccnc(N4CC5COCC5C4)n3)ccc2Cl)NC(=O)C2(F)CC2)cc1 (stereo partly drawn) [Example 318, N-[(1S)-1-[[5-[2-(1,3,3a,4,6,6a-hexahydrofuro[3,4-c]pyrrol-5-yl)pyrimidin-4-yl]-2-chloro-phenyl]methyl]-2-[4-(3,5-dimethyl-1H-pyrazol-4-yl)anilino]-2-oxo-ethyl]-1-fluoro-cyclopropanecarboxamide] |
| < 0.1 | Cc1n[nH]c(C)c1-c1ccc(NC(=O)[C@H](Cc2cc(-c3ccnc(N4CC[S+]([O-])CC4)n3)ccc2Cl)NC(=O)C2(F)CC2)cc1 [Example 315, N-[(1S)-1-[[2-chloro-5-[2-(1-oxidothiomorpholin-1-ium-4-yl)pyrimidin-4-yl]phenyl]methyl]-2-[4-(3,5-dimethyl-1H-pyrazol-4-yl)anilino]-2-oxo-ethyl]-1-fluoro-cyclopropanecarboxamide] |
| < 0.1 | Cc1n[nH]c(C)c1-c1ccc(NC(=O)[C@@H](NC(=O)C2(F)CC2)[C@@H]2CCc3ccc(-c4ccc(=O)n(C(C)C)c4)cc32)cc1 [Example 7, N-[(1S)-2-[4-(3,5-dimethyl-1H-pyrazol-4-yl)anilino]-1-[(1R)-6-(1-isopropyl-6-oxo-3-pyridyl)indan-1-yl]-2-oxo-ethyl]-1-fluoro-cyclopropanecarboxamide] |
| < 0.1 | CN(c1cc(-c2ccc(Cl)c(CC(NC(=O)c3ccnn3C)C(=O)Nc3ccc(-c4cncn4C)cc3)c2)ccn1)C1CC1 (centres unmarked) [Example 150, N-[1-[[2-chloro-5-[2-[cyclopropyl(methyl)amino]-4-pyridyl]phenyl]methyl]-2-[4-(3-methylimidazol-4-yl)anilino]-2-oxo-ethyl]-2-methyl-pyrazole-3-carboxamide] |
| > 1 | CC(C)n1cc(-c2ccc(Cl)c(C[C@H](NC(=O)[C@H]3CC3(F)F)C(=O)Nc3ccc(-c4nncn4C)cc3)c2)ccc1=O [Example 288, (1R)-N-[(1S)-1-[[2-chloro-5-(1-isopropyl-6-oxo-3-pyridyl)phenyl]methyl]-2-[4-(4-methyl-1,2,4-triazol-3-yl)anilino]-2-oxo-ethyl]-2,2-difluoro-cyclopropanecarboxamide] |
| > 1 | CC(C)n1cc(-c2ccc(Cl)c(CC(NC(=O)c3ccnn3C)C(=O)Nc3ccc(-c4nncn4C4CC4)cc3)c2)ccc1=O (centres unmarked) [Example 72, N-[1-[[2-chloro-5-(1-isopropyl-6-oxo-3-pyridyl)phenyl]methyl]-2-[4-(4-cyclopropyl-1,2,4-triazol-3-yl)anilino]-2-oxo-ethyl]-2-methyl-pyrazole-3-carboxamide] |
| < 0.1 | Cn1cncc1-c1ccc(NC(=O)[C@H](Cc2cc(-c3ccnc(C(C)(O)C4CC4)c3)ccc2Cl)NC(=O)c2ccnn2C)cc1 (stereo partly drawn) [Example 141, N-[(1S)-1-[[2-chloro-5-[2-(1-cyclopropyl-1-hydroxy-ethyl)-4-pyridyl]phenyl]methyl]-2-[4-(3-methylimidazol-4-yl)anilino]-2-oxo-ethyl]-2-methyl-pyrazole-3-carboxamide] |
| < 0.1 | Cc1n[nH]c(C)c1-c1ccc(NC(=O)[C@H](Cc2cc(-c3cccc(C(C)(C)O)c3)ccc2Cl)NC(=O)c2ccnn2C)cc1 [Example 58, N-[(1S)-1-[[2-chloro-5-[3-(1-hydroxy-1-methyl-ethyl)phenyl]phenyl]methyl]-2-[4-(3,5-dimethyl-1H-pyrazol-4-yl)anilino]-2-oxo-ethyl]-2-methyl-pyrazole-3-carboxamide] |
| 0.1 to 1 | Cc1cnn(C)c1-c1ccc(NC(=O)[C@H](Cc2cc(-c3ccc(=O)n(C(C)C)c3)ccc2Cl)NC(=O)C2CC2)cc1 [Example 329, N-[(1S)-1-[[2-chloro-5-(1-isopropyl-6-oxo-3-pyridyl)phenyl]methyl]-2-[4-(2,4-dimethylpyrazol-3-yl)anilino]-2-oxo-ethyl]cyclopropanecarboxamide] |
| 0.1 to 1 | CC(C)n1cc(-c2ccc(Cl)c(C[C@H](NC(=O)C3(F)CC3)C(=O)Nc3ccc(-c4cncn4C)cc3)c2)ccc1=O [Example 104, N-[(1S)-1-[[2-chloro-5-(1-isopropyl-6-oxo-3-pyridyl)phenyl]methyl]-2-[4-(3-methylimidazol-4-yl)anilino]-2-oxo-ethyl]-1-fluoro-cyclopropanecarboxamide] |
